Data reported in US8338151B2, “Method for creating intracellular artificial nanostructures in situ” (The Hong Kong University of Science and Technology, priority 2005, dated 2012).

Assay: Minimum gelation concentration / hydrogelation ability
Format: physicochemical
From the text: In this embodiment, precursors bearing the general formula C10H7CH2C(O)—ZZ (where Z is the residue of an amino acid) was used.
For this precursor, it is possible to use the enzyme kinase/phosphatase pair as an enzyme switch because (i) FF is prone to self-assembly (ii) Nap-FF gels water effectively (at 0.8 wt %), and (iii) the residue of Glu-Tyr (EY) accepts phosphorylation in the presence of a tyrosine kinase and the phosphorylation process can be reversed by phosphatase.
One of the motivations to use naphthalene (Nap) rather than N-(fluorenyl-methoxycarbonyl) (FMOC) is that Nap should be more biocompatible, as evidenced by several clinical drugs consisting of a Nap motif (i. e., propranolol, naphazoline, nafronyl). The glycine (G) was used to connect Nap-FF with EY because glycine is the simplest amino acid. Unlike other pentapeptides, FFGEY is not a known epitope of any protein, but it carries the basic structural requirement to serve as the substrate of the tyrosine kinase. After obtaining precursor IIIa through solid-phase synthesis, the hydrogelation ability of IIIa was tested. Via a slight adjustment of pH (from 7.8 to 7.5), IIIa forms a transparent hydrogel in water at 0.6 wt %). The successful hydrogelation of IIIa implies that Nap-FF also may act as a useful motif to conjugate with other amino acid residues to construct hydrogelators. […]

minimum gelation concentration (mgc): ca. 0.4% | concentration at which a hydrogel forms in water (water): 0.8 wt %
Structure (SMILES): O=C(Cc1ccc2ccccc2c1)N[C@@H](Cc1ccccc1)C(=O)N[C@@H](Cc1ccccc1)C(=O)O [C10H7CH2C(O)-L-Phe-L-Phe]
